From patent publication US6903117B2, “Indole derivatives for the treatment of osteoporosis” (Nikem Research S.R.L., priority 1996, dated 2005)
pIC50: −log10 of the molar value. Counter-ions that a name gives are not always drawn. Like-named read-outs stand apart in the source and are kept apart here.

Key:
[1] = target: bafilomycin-sensitive ATPase in chicken osteoclasts (Gallus gallus, UniProt A0A8V0Z1D5+Q9I8C8); experiment: Inhibition of bafilomycin-sensitive ATPase in chicken osteoclasts; format: biochemical
Experimental: Vesicles were prepared from medullar bone obtained from tibiae and femurs of egg-laying hens which were calcium-starved for at least 15 days. Briefly, bone fragments were scraped with a 24 scalpel blade, suspended in 40 ml of isolation medium (0.2 M sucrose, 50 mM KCl, 10 mM Hepes, 1 mM EGTA, 2 mM dithiotheitrol, pH 7.4) and filtered through a 100 μm pore size nylon mesh. The whole procedure was performed at 4° C. After homogenisation in a potter (20 strokes) in 40 ml of isolation medium an initial centrifugation (6,500×gmax×20 min) was performed to remove mitochondria and lysosomes. The supernatant was centrifuged at 100,000×gmax for 1 hr and the pellet was collected in 1 ml of isolation medium, divided into 200 μl aliquots, immediately frozen in liquid nitrogen and stored at −80° C. The protein content was determined using a Biorad colourimetric kit according to Bradford [M. Bradford, Anal. Biochem., 72, 248 (1976)]. For the proton transport assay, 5-10 μl of membranes were used.
Purification of osteoclast membranes. 1 ml of crude microsomal vesicles prepared above were applied (about 0.2 ml per tube) on the top of a sucrose step-gradient consisting of 3.5 ml of 15%, 30% and 45% (w/w) sucrose in isolation medium and centrifuged at 280,000 gmax for 2 hours (SW 41 Ti rotor). After centrifugation the 30-45% sucrose interfaces were collected, diluted approx. 20-fold in isolation medium and pelletted at 100,000 gmax for 1 hour (SW 28 rotor). The pellet was then resuspended in 1 ml of isolation medium, aliquoted and frozen in liquid N2 and stored at −80° C. until used.
Inhibition of bafilomycin-sensitive ATPase activity was assessed in purified membrane vesicles by measuring the release of inorganic phosphate (Pi) during 30 min of incubation at 37° C. in a 96-well plate either in the presence or in the absence of bafilomycin A1. The reaction medium contained 1 mM ATP, 10 mM HEPES-Tris pH 8, 50 mM KCl, 5 uM valinomycin, 5 uM nigericin, 1 mM CDTA-Tris, 100 uM ammonium molybdate, 0.2 M sucrose and membranes (20 ug protein/ml). The reaction was initiated by MgSO4 (8-arm pipette) and stopped, after 30 min, by addition of 4 volumes of the malachite green reagent (96-arm pipette) prepared according to Chan [Anal. Biochem. 157, 375 (1986)]. Absorbance at 650 nm was measured after 2 min using a microplate reader. Results are expressed as μmol (Pi)×mg protein^−1×hour^−1 and, for each experiment, represent the mean±sem of triplicates.

[2] = test system: osteoclast proton pump; conditions: avian osteoclast membrane vesicles; cited from earlier work
[3] = test system: osteoclast cultures; conditions: cited from earlier work
[4] = test system: ovariectomised mature rats; experiment: Prevention of bone loss in ovariectomised mature rats; format: in vivo, rat; conditions: % prevention of bone loss versus vehicle treated animals
Description: Prevention of bone loss in ovariectomised mature rats. The methodology employed is based on that described by Wronsky et al. [J. Bone Min. Res., 6, 387 (1991)]. The bone loss, prevalently cancellous, occuring after the surgery is monitored by dual emission X-ray absorptiometry (DEXA) measurements of bone mineral density (BMD) of long bones and by HPLC measurements of urinary levels of products of bone collagen breakdown, such as the cross-link residues pyridinoline (PYD), deoxypyridinoline (DPD) and lysine glycosides, i.e. galactosyl-hydroxylysine (GHYL) and glucosyl-galactosyl-hydroxylysine (GGHYL). Groups of 7-10 female Sprague-Dawley rats, about 90 days old and weighing 200-250 g are used. Rats are anesthetised by sodium pentobarbital (35 mg/kg i.v.), laparotomy is performed and ovaries are bilaterally removed. Wounds are adequately disinfected and sutured. A group is sham operated. […] Before and at the end of the experimental period, the bone metaphyseal mineral densities of left distal femur and proximal tibia were evaluated in vivo using lightly anaesthetised animals. Results are expressed as % of prevention of bone loss versus vehicle treated animals, using the following equation, where BMD indicates the bone mineral density at the end of the experimental period and is expressed as the percent of pre-ovariectomy baseline: [formula] […]

[5] = test system: human osteoclasts; experiment: Human Osteoclast Resorption Assay; format: cell-based; conditions: human osteoclasts on bone slices
Experimental: 1) Bone resorption by disaggregated rat osteoclasts can be assessed as described previously in the literature [T. J. Chambers et al., Endocrinology, 1985, 116, 234]. Briefly, osteoclasts were mechanically disaggregated from neonatal rat long bones into Hepes-buffered medium 199 (Flow, UK). The suspension was agitated with a pipette, and the larger fragments were allowed to settle for 30 sec. The cells were then added to two wells of a multiwell dish containing bone slices (each measuring 12 mm^2). After 15 min at 37° C. the bone slices were removed, washed in medium 199 and placed in individual wells of a 96-well plate. […] The number of osteoclasts and bone resorption were quantified by confocal laser scanning microscopy (CLSM): the bone slices were fixed with 2% glutaraldehyde in 0.2 M cacodylate buffer and the osteoclasts on each bone slice were stained for tartrate-resistant acid phosphatase. […] The number and the size of the osteoclastic excavations, the plain area and the volume of bone resorbed was recorded. Results were expressed as mean pit number per bone slice, mean pit number per osteoclast, mean area per osteoclast or mean volume per osteoclast.
2) Bone resorption by human osteoclasts can be assessed using a modification of the method above. […] Bone slices were then treated and analysed as described above for the rat osteoclast assay.

[6] = chicken osteoclast membranes, read-out: IC50 (nM) ATPase assay
[7] = read-out: IC50 (nM) ATPase assay, chicken osteoclast membranes

bafilomycin-sensitive ATPase in chicken osteoclasts, sequence (Q9I8C8 entry or part of it): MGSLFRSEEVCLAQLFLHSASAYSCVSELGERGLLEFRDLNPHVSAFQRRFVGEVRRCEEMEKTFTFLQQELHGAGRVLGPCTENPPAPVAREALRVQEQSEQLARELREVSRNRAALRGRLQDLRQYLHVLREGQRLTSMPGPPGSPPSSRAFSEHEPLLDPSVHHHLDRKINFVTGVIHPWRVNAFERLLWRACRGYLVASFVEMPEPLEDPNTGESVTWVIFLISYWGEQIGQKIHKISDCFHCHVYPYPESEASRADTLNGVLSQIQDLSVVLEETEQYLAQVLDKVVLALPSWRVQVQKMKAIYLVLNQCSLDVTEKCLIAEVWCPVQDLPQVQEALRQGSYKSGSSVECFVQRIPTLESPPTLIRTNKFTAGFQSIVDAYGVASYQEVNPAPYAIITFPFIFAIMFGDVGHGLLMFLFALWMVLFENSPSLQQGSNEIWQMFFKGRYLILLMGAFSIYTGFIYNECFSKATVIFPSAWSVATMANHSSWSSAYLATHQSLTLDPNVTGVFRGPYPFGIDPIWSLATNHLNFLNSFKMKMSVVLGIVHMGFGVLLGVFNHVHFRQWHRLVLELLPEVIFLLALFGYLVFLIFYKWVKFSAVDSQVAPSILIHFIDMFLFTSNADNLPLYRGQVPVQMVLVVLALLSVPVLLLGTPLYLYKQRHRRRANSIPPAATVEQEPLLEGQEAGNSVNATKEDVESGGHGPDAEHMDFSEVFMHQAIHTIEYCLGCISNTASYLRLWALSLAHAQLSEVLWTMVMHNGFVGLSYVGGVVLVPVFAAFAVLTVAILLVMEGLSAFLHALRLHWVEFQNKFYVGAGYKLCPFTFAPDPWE
bafilomycin-sensitive ATPase in chicken osteoclasts, sequence (P49712 whole entry, further chain, the tested form may be a part): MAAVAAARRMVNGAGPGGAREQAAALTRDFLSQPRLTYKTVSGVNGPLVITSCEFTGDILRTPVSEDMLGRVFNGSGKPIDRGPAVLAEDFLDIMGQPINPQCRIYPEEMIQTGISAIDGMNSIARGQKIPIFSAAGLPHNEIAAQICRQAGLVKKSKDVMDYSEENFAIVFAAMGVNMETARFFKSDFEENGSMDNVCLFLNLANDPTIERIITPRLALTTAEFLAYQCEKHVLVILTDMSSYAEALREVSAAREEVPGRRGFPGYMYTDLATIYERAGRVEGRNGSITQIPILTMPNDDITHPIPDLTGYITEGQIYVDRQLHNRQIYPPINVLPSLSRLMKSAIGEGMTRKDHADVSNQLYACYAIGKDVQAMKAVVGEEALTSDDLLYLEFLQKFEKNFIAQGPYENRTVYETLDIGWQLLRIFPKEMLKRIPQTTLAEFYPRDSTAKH
bafilomycin-sensitive ATPase in chicken osteoclasts, sequence (Q5ZHL0 whole entry, further chain, the tested form may be a part): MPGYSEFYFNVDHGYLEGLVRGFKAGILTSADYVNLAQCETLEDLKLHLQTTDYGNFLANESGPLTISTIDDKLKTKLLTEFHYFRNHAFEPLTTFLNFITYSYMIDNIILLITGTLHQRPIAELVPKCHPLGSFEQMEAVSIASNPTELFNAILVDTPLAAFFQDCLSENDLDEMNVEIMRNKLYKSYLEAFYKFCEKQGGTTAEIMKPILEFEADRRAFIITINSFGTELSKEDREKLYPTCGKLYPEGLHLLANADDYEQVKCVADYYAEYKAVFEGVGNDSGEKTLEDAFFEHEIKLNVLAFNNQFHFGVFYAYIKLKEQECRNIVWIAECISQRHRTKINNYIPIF
bafilomycin-sensitive ATPase in chicken osteoclasts, sequence (Q90647 whole entry, further chain, the tested form may be a part): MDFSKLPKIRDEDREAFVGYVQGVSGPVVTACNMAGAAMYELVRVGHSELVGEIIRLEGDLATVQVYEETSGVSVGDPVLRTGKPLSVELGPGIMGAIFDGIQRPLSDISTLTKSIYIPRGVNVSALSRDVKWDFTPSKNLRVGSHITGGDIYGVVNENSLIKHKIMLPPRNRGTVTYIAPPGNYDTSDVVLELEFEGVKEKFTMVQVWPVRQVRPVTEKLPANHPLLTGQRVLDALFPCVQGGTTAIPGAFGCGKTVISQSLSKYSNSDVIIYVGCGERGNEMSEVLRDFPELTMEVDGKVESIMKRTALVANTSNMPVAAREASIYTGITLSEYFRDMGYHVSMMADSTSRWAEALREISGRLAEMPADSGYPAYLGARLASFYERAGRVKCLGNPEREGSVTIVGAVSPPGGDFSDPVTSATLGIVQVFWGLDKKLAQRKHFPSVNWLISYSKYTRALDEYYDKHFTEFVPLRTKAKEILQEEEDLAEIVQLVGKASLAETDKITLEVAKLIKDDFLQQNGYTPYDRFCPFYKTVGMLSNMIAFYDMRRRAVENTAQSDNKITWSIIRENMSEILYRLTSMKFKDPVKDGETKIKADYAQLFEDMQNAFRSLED
bafilomycin-sensitive ATPase in chicken osteoclasts, sequence (A0A8V0Z1D5 entry or part of it): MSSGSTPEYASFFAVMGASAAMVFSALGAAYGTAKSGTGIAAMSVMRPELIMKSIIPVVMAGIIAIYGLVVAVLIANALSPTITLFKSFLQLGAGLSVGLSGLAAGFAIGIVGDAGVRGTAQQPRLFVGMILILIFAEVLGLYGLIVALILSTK

## COC(=CC=Cc1cc2cc(Cl)c(Cl)cc2[nH]1)C(=O)NCCCN1C(C)CN(c2ncccn2)CC1C (stereo not shown) [Example 62, (2Z,4E)-5-(5,6-Dichloro-1H-indol-2-yl)-N-[3-[2,6-dimethyl-4-(2-pyrimidinyl)plperazin-1-yl]propyl]-2-methoxy-2,4-pentadienamide hydrochloride]
[1]; [6]
  IC50: 30 nM

## CCN1C(=O)C=CC1=O [N-ethylmaleimide]
[2]
  inhibition of proton transport by the osteoclast proton pump: inhibited

## (2Z,4E)-5-(5,6-Dichloro-1H- indol-2-yl)-N-(2a beta, 4a alpha, 6 beta, 7a alpha- decahydro-pyrrolo[2.1.5- cd]indolizyn-6-yl)-2- methoxy-2,4- pentadienamide [Example 55]
[1]; [6]
  IC50: 23 nM

## C[C@@H]1O[C@@H](O[C@H]2C[C@@H](O)[C@]3(CO)[C@H]4[C@H](O)C[C@]5(C)[C@@H](C6=CC(=O)OC6)CC[C@]5(O)[C@@H]4CC[C@]3(O)C2)[C@H](O)[C@H](O)[C@H]1O [ouabain]
[2]
  inhibition of proton transport by the osteoclast proton pump: not inhibited

## CO/C1=C\C(C)=C\[C@@H](C)[C@@H](O)[C@@H](C)C/C(C)=C/C=C/[C@H](OC)[C@@H]([C@@H](C)[C@@H](O)[C@H](C)[C@@]2(O)C[C@@H](O)[C@H](C)[C@@H](C(C)C)O2)OC1=O [bafilomycin A1]
[2]
  inhibition of proton transport by the osteoclast proton pump: inhibited
[3]
  inhibition of bone resorption in osteoclast cultures: able to inhibit

## COC(=CC=Cc1cc2cc(Cl)c(Cl)cc2[nH]1)C(=O)NCCCN1C(C)CN(c2ncccn2)CC1C (stereo not shown) (as salt: hydrochloride) [Example 62, (2Z,4E)-5-(5,6-Dichloro-1H-indol-2-yl)-N-[3-[2,6-dimethyl-4-(2-pyrimidinyl)plperazin-1-yl]propyl]-2-methoxy-2,4-pentadienamide hydrochloride]
other
  melting point: 245 °C

## CO/C(=C\C=C\c1cc2cc(Cl)c(Cl)cc2[nH]1)C(=O)NC1CCCC(N(C)C)C1 (stereo not shown) [Example 61, (2Z,4E)-5-(5,6-Dichloro-1H-indol-2-yl)-N-(3-dimethylamino-cyclohexyl)-2-methoxy-2,4-pentadienamide]
[1]; [6]
  IC50: 41 nM
other
  melting point: 200 to 201 °C

## [Na+].[Na+].[Na+].[O]=[V]([O-])([O-])[O-] [sodium orthovanadate]
[2]
  inhibition of proton transport by the osteoclast proton pump: not inhibited

## CO/C(=C\C=C\c1cc2cc(Cl)c(Cl)cc2[nH]1)C(=O)NCCCN1CCN(c2ccccn2)CC1 [Example 75, (2Z,4E)-5-(5,6-Dichloro-1H-indol-2-yl)-N-[3-[4-(2-pyridyl)piperazin-1-yl]propyl]-2-methoxy-2,4-pentadienamide]
[1]; [6]
  IC50: 30 nM
other
  melting point: 219 to 220 °C

## CO/C(=C\C=C\c1cc2cc(Cl)c(Cl)cc2[nH]1)C(=O)NCCCN1CCN(c2ccccc2)CC1 [Example 64, (2Z,4E)-5-(5,6-Dichloro-1H-indol-2-yl)-2-methoxy-N-(3-[-4-(phenyl)piperazin-1-yl]propyl] 2,4-pentadienamide]
[1]; [7]
  IC50: 67 nM
other
  melting point: 223 to 225 °C

## CO/C(=C\C=C\c1cc2cc(Cl)c(Cl)cc2[nH]1)C(=O)NC1CC(C)(C)N(C)C(C)(C)C1 [Example 1, (2Z,4E)-5-(5,6-Dichloro-1H-indol-2-yl)-2-methoxy-N-(1,2,2,6,6-pentamethylpiperidin-4-yl)-2,4-pentadienamide]
[4]
  Protection of bone loss in ovariectomised mature rats at 10 mg/kg p.o.: 76%
[1]; [6]
  IC50: 24 nM
[5]
  pIC50: 8.47

## CO/C(=C\C=C\c1cc2cc(Cl)c(Cl)cc2[nH]1)C(=O)NCCCN1CCCN(c2ncccn2)CC1 [Example 74, (2Z,4E)-5-(5,6-Dichloro-1H-indol-2-yl)-N-[3-[4-(2-pyrimidinyl)homopiperazin-1-yl]propyl]-2-methoxy-2,4-pentadienamide]
[1]; [6]
  IC50: 42 nM
other
  melting point: 220 to 222 °C

## Cc1nc2c(OCc3ccccc3)cccn2c1CC#N [SCH 28080]
[2]
  inhibition of proton transport by the osteoclast proton pump: not inhibited

## CO/C(=C\C=C\c1cc2cc(Cl)c(Cl)cc2[nH]1)C(=O)NCCCN1CCN(c2cccc(Cl)c2)CC1 [Example 68, (2Z,4E)-5-(5,6-Dichloro-1H-indol-2-yl)-N-[3-[-4-(3-chlorophenyl)piperazin-1-yl]propyl]-2-methoxy-2,4 pentadienamide]
[1]; [7]
  IC50: 18 nM
other
  melting point: 192 to 193 °C
